Laboratory results published in article PMC12624955, “Exploring diarylheptanoid derivatives to target LIMK1 as potential agents against colorectal cancer” (Journal of Enzyme Inhibition and Medicinal Chemistry, 2025).
Where two headings read alike, the source gives them in different places.

Experiments:
LIMK1 = molecular target: T1, LIMK1 (Homo sapiens, UniProt P53667); experiment: LanthaScreen Eu kinase binding assay (SelectScreen), LIMK1 inhibition; conditions: for inhibition at 10 µM: compound at 10 μM, average of two replicates, read-out: Inhibition percentage at 10 μM
T1 construct: purchased Thermo Fisher Scientific (SelectScreen Kinase assay service)
Protocol: The inhibitory activities of the compounds against kinases were tested using the SelectScreen Kinase assay from Thermo Fisher Scientific in Waltham, MA, USA. The LanthaScreen Eu kinase binding assay was used to validate the LIMK1 inhibition activity of the compounds, and was performed according to the manufacturer’s protocol (https://www.thermofisher.com/tw/zt/home/industrial/pharma-biopharma/drug-discovery-development/target-and-lead-identification-and-validation/kinasebiology/kinase-activity-assays/lanthascreentm-eu-kinase-binding-assay/lanthascreen-eu-kinase-binding-assay-validation-table.html). This endpoint assay quantifies inhibitor binding through the displacement of a fluorescently labelled ATP-competitive tracer from LIMK1. A mixture of the 100× compounds, 2× LIMK1/antibody mixture (Eu-anti-His), 4× tracer 236, and kinase buffer were mixed sequentially. After incubation at room temperature for 1 h, the mixture was analysed using a fluorescence plate reader. The kinase inhibition assay results were expressed as the average of two replicates.

HT-29 [1] = experiment: MTT assay (cell viability); format: cell-based; conditions: Homo sapiens, 72 h, mean ± SD
Protocol: (§1) Colorectal cell line, HCT-116, was purchased from the Bioresource Collection and Research Centre (BCRC, Hsinchu, Taiwan), while HT-29 was obtained from the American Type Culture Collection (ATCC, Manassas, VA, USA). Both cell lines were maintained in McCoy’s 5 A medium (with L-glutamine and 2.2 g/L NaHCO3, M4892, Sigma) supplemented with 10% foetal bovine serum (Corning Incorporated, NY, USA) and 1% penicillin–streptomycin–amphotericin B (100 unit/ml penicillin G, 0.1 mg/ml streptomycin sulphate, 0.25 μg/ml amphotericin B, Corning Incorporated, NY, USA). All cultures were maintained in a humidified incubator at 37 °C with 5% CO2.
(§2) Cells were seeded in 96-well plates at a density of 3 × 10^3 cells/well in 100 μl of culture medium and treated with compounds at the indicated concentrations (0.3, 1, 3, 10, and 30 μM) for 72 h. Following treatment, the 3-(4,5-dimethylthiazol-2-yl)-2,5-diphenyltetrazolium bromide (MTT) solution (5 mg/ml in Phosphate-buffered saline (PBS)) was added to each well to reach a final concentration of 0.5 mg/ml, and the cells were incubated at 37 °C for 1 h. The resulting formazan crystal was dissolved in 100 µl of DMSO, and the absorbance was measured at 550 nm using an ELISA reader (Molecular Device, Sunnyvale, CA, USA).

HCT-116 [2] = experiment: MTT assay (cell viability); format: cell-based; conditions: Homo sapiens, 72 h, mean ± SD
Protocol: as §1, §2

HT-29 [3] = experiment: Sulforhodamine B assay (cell proliferation); format: cell-based; conditions: Homo sapiens, SRB assay, 72 h, mean ± SD
Protocol: as §1
(§3) Cells were seeded in 96-well plates at a density of 3 × 10^3 cells/well in 100 μl of culture medium and treated with compounds at the indicated concentrations for 72 h. After treatment, cells were fixed with 10% trichloroacetic acid for 20 min and washed with H2O. The cells were then stained with 0.4% sulforhodamine B (SRB) in 1% acetic acid for 20 min, followed by two washes with 1% acetic acid. After the well-dried, the protein-bound dye was dissolved in 100 µl of 10 mM Tris base solution, and the absorbance was measured at 515 nm using an ELISA reader (Molecular Device, Sunnyvale, CA, USA).

HCT-116 [4] = experiment: Sulforhodamine B assay (cell proliferation); format: cell-based
Protocol: as §1, §3

LIMK = conditions: cited from earlier work

T1 sequence (P53667 whole entry): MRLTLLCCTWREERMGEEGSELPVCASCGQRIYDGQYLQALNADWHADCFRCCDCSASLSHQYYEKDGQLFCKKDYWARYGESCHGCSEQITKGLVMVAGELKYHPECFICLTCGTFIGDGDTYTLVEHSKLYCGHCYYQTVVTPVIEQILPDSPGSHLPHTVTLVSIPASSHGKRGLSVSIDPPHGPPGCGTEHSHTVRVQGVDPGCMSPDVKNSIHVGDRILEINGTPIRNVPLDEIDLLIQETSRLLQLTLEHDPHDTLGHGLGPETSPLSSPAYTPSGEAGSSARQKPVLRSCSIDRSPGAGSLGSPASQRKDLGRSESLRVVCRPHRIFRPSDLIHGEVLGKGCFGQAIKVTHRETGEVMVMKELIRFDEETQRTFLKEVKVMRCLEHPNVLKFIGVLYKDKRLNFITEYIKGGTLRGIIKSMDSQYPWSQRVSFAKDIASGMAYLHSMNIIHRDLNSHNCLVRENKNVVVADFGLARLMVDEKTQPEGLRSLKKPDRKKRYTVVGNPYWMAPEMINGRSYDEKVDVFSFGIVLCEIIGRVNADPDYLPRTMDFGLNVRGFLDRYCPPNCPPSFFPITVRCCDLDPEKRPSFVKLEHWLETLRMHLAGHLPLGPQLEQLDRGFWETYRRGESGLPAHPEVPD

Structure (SMILES) | inhibition at 10 µM (LIMK1) [%] | also measured
O=C(/C=C/c1ccc(O)c(O)c1)CCCCc1ccccc1O [Compound 7a, 1-(3.4-Dihydroxyphenyl)-7-(2-hydroxyphenyl)hept-1-en-3-one] | 89 | IC50 (LIMK1): 1770 nM
O=C(/C=C/c1ccc(O)c(O)c1)CCCCc1cccc(O)c1 [Compound 7b, 1-(3.4-Dihydroxyphenyl)-7-(3-hydroxyphenyl)hept-1-en-3-one] | 102 | IC50 (LIMK1): 1110 nM
O=C(/C=C/c1ccc(O)c(O)c1)CCCCc1ccc(O)cc1 [Compound 7c, 1-(3.4-Dihydroxyphenyl)-7-(4-hydroxyphenyl)hept-1-en-3-one] | 106 | IC50 (LIMK1): 1090 nM
O=C(CCCCc1ccccc1O)CCc1ccc(O)c(O)c1 [Compound 8a, 1-(3.4-Dihydroxyphenyl)-7-(2-hydroxyphenyl)heptan-3-one] | 37 | 
O=C(CCCCc1cccc(O)c1)CCc1ccc(O)c(O)c1 [Compound 8b, 1-(3.4-Dihydroxyphenyl)-7-(3-hydroxyphenyl)heptan-3-one] | 34 | 
O=C(CCCCc1ccc(O)cc1)CCc1ccc(O)c(O)c1 [Compound 8c, 1-(3.4-Dihydroxyphenyl)-7-(4-hydroxyphenyl)heptan-3-one] | 47 | 
O=C(/C=C/c1ccc(O)c(O)c1)CCCCn1ccc2ccc(O)cc21 [Compound 13b, (E)-1-(3.4-dihydroxyphenyl)-7-(6-hydroxy-1H-indol-1-yl)hept-1-en-3-one] | 106 | IC50 (LIMK1): 1390 nM
O=C(CCCCn1ccc2c(O)cccc21)CCc1ccc(O)c(O)c1 [Compound 14a, 1-(3,4-Dihydroxyphenyl)-7-(4-hydroxy-1H-indol-1-yl)heptan-3-one] | 51 | 
O=C(CCCCn1ccc2ccc(O)cc21)CCc1ccc(O)c(O)c1 [Compound 14b, 1-(3,4-Dihydroxyphenyl)-7-(6-hydroxy-1H-indol-1-yl)heptan-3-one] | 53 | 
COCOc1cccc2c1ccn2CCCCC(=O)/C=C/c1ccc(O)c(O)c1 [Compound 15, (E)-1-(3,4-dihydroxyphenyl)-7-(4-(methoxymethoxy)-1H-indol-1-yl)hept-1-en-3-one] | 106 | IC50 (LIMK1): 1880 nM
O=C(/C=C/c1ccc(O)c(O)c1)CCCCn1ccc2ccccc21 [Compound 18, (E)-1-(3,4-dihydroxyphenyl)-7-(1H-indol-1-yl)hept-1-en-3-one] | 110 | IC50 (LIMK1): 1490 nM
O=C(CCCCn1ccc2ccccc21)CCc1ccc(O)c(O)c1 [Compound 19, 1-(3,4-Dihydroxyphenyl)-7-(1H-indol-1-yl)heptan-3-one] | 28 | 
O=C(/C=C/c1ccc(O)c(O)c1)CCCCc1ccccc1 [Compound I] | 101 | IC50 (LIMK1): 1590 nM
O=C(/C=C/c1ccccc1)CCCCc1ccccc1 [Compound VII] | ≤ 0 | 
O=C(/C=C/c1ccc(O)c(O)c1)CCCc1ccccc1 [Compound VI] | 82 | 
O=C(/C=C/c1ccc(O)c(O)c1)CCc1ccccc1 [Compound V] | 68 | 
O=C(/C=C/c1cc(O)c(O)c(O)c1)CCCCc1ccccc1 [Compound XV] | 112 | IC50 (HT-29 [1]): > 30000 nM; IC50 (HCT-116 [2]): > 30000 nM; GI50 (HT-29 [3]): 28800 ± 1800 nM; GI50 (HCT-116 [4]; Homo sapiens, SRB assay, 72 h, mean ± SD): > 30000 nM; growth inhibition of HCT-116 cells (HCT-116 [4]; concentration of 30 µM): did not inhibit the growth; IC50 (LIMK1): 570 nM; IC50 (LIMK1; as printed in text): 569 nM
O=C(/C=C/c1ccc(O)c(F)c1)CCCCc1ccccc1 [Compound X] | ≤ 0 | 
O=C(/C=C/c1ccc(O)c(O)c1)c1ccccc1 [III] | 84 | 
O=C(CCCCc1ccccc1)CCc1ccc(O)c(O)c1 [II] | 30 | 
O=C(/C=C/c1ccc(O)c(O)c1)Cc1ccccc1 [IV] | 56 | 
O=C(/C=C/c1cccc(O)c1)CCCCc1ccccc1 [IX] | ≤ 0 | 
O=C(/C=C/c1ccc(O)cc1)CCCCc1ccccc1 [VIII] | ≤ 0 | 
O=C(/C=C/c1ccc(O)c([N+](=O)[O-])c1)CCCCc1ccccc1 [XIII] | 7 | 
O=C(/C=C/c1ccc(O)c(Br)c1)CCCCc1ccccc1 [XII] | 1 | 
COc1cc(/C=C/C(=O)CCCCc2ccccc2)ccc1O [XIV] | 1 | 
O=C(/C=C/c1ccc(O)c(Cl)c1)CCCCc1ccccc1 [XI] | 4 | 
COc1cc(/C=C/C(=O)CC(=O)/C=C/c2ccc(O)c(OC)c2)ccc1O [curcumin] |  | IC50 (LIMK): 30000 nM
